Data on four molecules can be found in ChEMBL document CHEMBL1127142, “Novel conversion reaction of -lactam to -lactam. Synthesis of -lactam analogs of penam and penem antibiotics” (Bioorg Med Chem Lett, 1993).

The subject of assay [1] is Bacteria. Description: Activity of compound tested against Gram negative bacteria at concentration of 100 ug/ml; Inactive. The format is functional, organism-based.
A short description of assay [2]: Activity of compound tested against Gram positive bacteria at concentration of 100 ug/ml; Inactive. Type of assay: functional.

Molecules are shown by their SMILES. The source made the active and inactive calls. No cut-off for these calls is given here.

For the molecule `O=C(O)C1=C([C@H]2CCCO2)S[C@@H]2[C@H](C(=O)O)CC(=O)N12`, the result in assay [1] and in assay [2] was inactive.

Regarding `O=C(O)C1=C(C2CCCO2)S[C@@H]2[C@@H](C(=O)O)CC(=O)N12` (stereo partly drawn), the result in assay [1] and in assay [2] was inactive.

Turning to `CC1(C)S[C@@H]2[C@@H](C(=O)NCc3ccccc3)CC(=O)N2[C@H]1C(=O)O`, the result in assay [1] and in assay [2] was inactive.

For `O=C(O)C1=C([C@H]2CCCO2)S[C@@H]2[C@@H](C(=O)NCc3ccccc3)CC(=O)N12`, the outcome in assay [1] and in assay [2] was inactive.
